By MIC is commonly meant the smallest concentration in the dilution series that meets the test's criterion for growth inhibition. Read a low MIC as greater potency.

This is an account of results in patent US9976170B2, “Method for evaluating bacterial cell wall integrity” (UNIVERSIDAD AUTONOMA DE MADRID, priority 2011, dated 2018).

In brackets after ≈: the same amount, converted by molar mass. Where two headings read alike, the source gives them in different places.

Type in all cases: cell-based
In assay [1] the test system is sensitive strain of E. coli. Put plainly: background of extracellular DNA fragments, processed without the step of lysis (FIG. 8). To be noted: 40 minutes, after 24 hours on a dish.
Description: The strains were processed without the step of lysis by exposure to the lysis solution.
The liquid with the cells is included in an agarose microgel which is dehydrated in alcohols and/or air dried or dried in an oven and stained with fluorochrome. It is the same process described in detail above, but without incubation with lysis solution. The background can be evaluated rapidly after 15-20 minutes that it takes to perform the technique. The preparations are permanent.
For assay [2], the system named is amoxicilin/clavulanic acid-sensitive E. coli strain. The procedure: The liquid with the cells is included in an agarose microgel which is dehydrated in alcohols and/or air dried or dried in an oven and stained with fluorochrome. It is the same process described in detail above, but without incubation with lysis solution.
Assay [3] deals with 11 different strains of E. coli isolated in a Microbiology Service. Put plainly: technique for evaluating cell wall integrity on hospital isolates. To be noted: of 11 strains, 1 hour. As for the experimental part: Following the results of the preceding experiment (Example 1), 11 different strains of E. coli isolated in a Microbiology Service were studied. After growing on a dish with Mueller-Hinton medium for 24 hours, they were exposed to amoxicilin together with clavulanic acid in Mueller-Hinton liquid medium for 1 hour, after which they were processed by means of the technique for evaluating cell wall integrity according to the present invention.

The test system of assay [4] is strain of Escherichia coli with intermediate sensitivity. Put plainly: technique for evaluating cell wall integrity, Examples 1 and 3. To be noted: for incubation time at which a clear effect started to show: only after high dose (32/16). The source says: (§1) Three different strains of Escherichia coli were exposed to the β-lactam antibiotic, amoxicilin, together with the β-lactamase inhibitor, clavulanic acid, and processed by means of the technique for evaluating cell wall integrity of the present invention. […] The doses of antibiotic were chosen according to the cutoff points indicated by the Clinical and Laboratory Standards Institute (CLSI). […] According to the disc diffusion data, one of the strains is a sensitive strain, another strain is a strain with intermediate sensitivity and the remaining strain is a resistant strain.
(§2) A sensitive strain, a strain with intermediate sensitivity and another resistant strain of E. coli were exposed to amoxicilin together with clavulanic acid in Mueller-Hinton liquid medium and processed by means of the technique for evaluating cell wall integrity of the present invention. […] The incubation times with the antibiotic were 5, 10, 20, 30, 40, 60 and 75 minutes.

The test system of assay [5] is resistant strain of Escherichia coli. The description is as above.
Description: as §1, §2

The subject of assay [6] is sensitive strain of Escherichia coli. Described as above. To be noted: for lysis of the bacteria, showing the nucleoids: exponential liquid culture.
Description: as §1, §2

The test system of assay [7] is Acinetobacter baumannii, imipenem-sensitive strain with intermediate sensitivity to ceftazidime. Put plainly: MIC by microdilution and/or E-test. The source says: (§3) The strains and the antibiotics used were: • Gram+ • Enterococcus faecalis.
(§4) The doses of antibiotic applied were 0, the MIC determined in the Microbiology Laboratory by means of the microdilution and/or E-test technique, and those of the cutoff points of sensitivity and resistance indicated by the Clinical and Laboratory Standards Institute (CLSI) for each strain. A dose 10 times higher than the MIC was also used.
In general terms: In broth dilution the organism is exposed to a series of concentrations in liquid medium.

Assay [8] has as its system Acinetobacter baumannii, imipenem- and ceftazidime-resistant strain. The experiment in a line: MIC by microdilution and/or E-test.
Description: as §3, §4

Assay [9] has as its system Acinetobacter baumannii, imipenem-sensitive strain with intermediate sensitivity to ceftazidime. Put plainly: technique for evaluating cell wall integrity (lysis solution, nucleoid release, fluorescence microscopy). To be noted: 60 minutes. The procedure: (§5) Different bacterial strains grown on a dish with Mueller-Hinton medium for 24 hours were subsequently exposed to a β-lactam antibiotic for 60 minutes in Mueller-Hinton liquid medium at 37° C., under stirring, and were finally processed by means of the technique for evaluating cell wall integrity according to the present invention.
as §4

Assay [10] relates to Acinetobacter baumannii, imipenem- and ceftazidime-resistant strain. The assay is described as above. To be noted: 60 minutes. The procedure: as §5, §4
Assay [11] has as its system Enterococcus faecium, ampicillin- and benzylpenicillin-resistant strain. Put plainly: MIC by microdilution and/or E-test.
Description: as §3, §4

The subject of assay [12] is Enterococcus faecalis, ampicillin-sensitive and benzylpenicillin-resistant strain. Put plainly: MIC by microdilution and/or E-test.
Description: as §3, §4

Assay [13] deals with Enterococcus faecium, ampicillin- and benzylpenicillin-resistant strain. The experiment in a line: technique for evaluating cell wall integrity (lysis solution, nucleoid release, fluorescence microscopy). To be noted: 320 μg/mL, 60 minutes. The procedure:
as §5, §4

For assay [14], the system named is Enterococcus faecalis, ampicillin-sensitive and benzylpenicillin-resistant strain. The description is as above. To be noted: 60 minutes. The procedure:
as §5, §4

Where [15] appears, read: 32/16, 15 minutes of incubation.
[16] abbreviates: dose 32/16, 40 minutes, exponential liquid culture.
Setting [17] is: low dose (8/4), bacteria from 24-hour dish culture.

In the case of amoxicilin/clavulanic acid, the “background of extracellular DNA fragments, without lysis” value in assay [1] (high dose (32/16)) is listed as “increases significantly”; in [1] (low dose (8/4)), “evident”; in assay [2] (setting [15]), “very clear background”; in assay [2] (32/16, after 3 and 4 hours), “poor”; in assay [2] (32/16, after 6 hours), “no longer observed”; in assay [2] (32/16, up to 2 hours of incubation) it was “remains intense”. In addition, the “cells per mL, measured by Neubauer chamber” value in assay [2] (setting [15]) is listed as 42.5 million of cells per mL. Further, the “OD 600” value turned out to be 0.071 in assay [2] (32/16, 15 minutes of incubation, starting OD 600 0.07); 0.033 in assay [2] (32/16, 2 hours of incubation); 0.037 in [2] (32/16, 3 hours); 0.033 in assay [2] (32/16, 4 hours); 0.035 in assay [2] (32/16, 6 hours). The “cells per mL” value is recorded as 14.5 million of cells per mL in assay [2] (32/16, 2 hours of incubation); 13.5 million of cells per mL in [2] (32/16, 6 hours); 14 million of cells per mL in assay [2] (32/16, at both 3 and 4 hours). For the same molecule, the “strains with complete wall lysis and intense background even at low dose (8/4), categorized as sensitive” value in [3] is “Three”. The “strains with complete wall lysis and intense background only at high dose (32/16), intermediate sensitivity” value in assay [3] worked out at 5. Further, in assay [3], the “strains with non-lysed and moderately lysed cells, very faint or no background at high dose, categorized as resistant” value is recorded as “Two”. The “lysis of the bacteria, showing the nucleoids” value in assay [4] (setting [16]) is on record as “lysed”; in assay [5] (setting [16]), “not lysed”; in [6] (dose 8/4 (8 μg/mL amoxicilin, 4 μg/mL clavulanic acid), 40 minutes) it was “lysed”; in assay [6] (dose 32/16, 40 minutes) it was “lysed”. Moreover, the “incubation time at which a clear effect started to show” value in [4] (bacteria from 24-hour dish culture) was 60 min; in assay [4] (liquid culture in exponential growth phase), 30 to 40 min. Besides, the “effect on the wall” value in assay [5] (8/4 and 32/16, liquid culture in exponential growth phase) was “did not show any effect at all”; in [5] (8/4 and 32/16, up to 75 minutes, bacteria from 24-hour dish culture) it was “did not show any effect at all”. Moreover, the “incubation time after which an effect (background, subtle cell lysis) started to be seen” value in assay [6] (high dose (32/16), bacteria from 24-hour dish culture) was 20 min. The “incubation time after which an effect started to be observed” value in assay [6] (low (8/4) and high (32/16) dose, liquid culture in exponential growth phase) turned out to be 10 min. Also, in assay [6] (setting [17]), the “incubation time after which the subtle effect was observed” value turned out to be 40 min. Moreover, the “incubation time at which the effect became maximum (lysis of virtually all cells)” value in assay [6] (setting [17]) was 60 min.

`C[C@@H](O)[C@H]1C(=O)N2C(C(=O)O)=C(SCCN=CN)C[C@H]12` [imipenem] yielded an MIC in [7] of 0.38 mg/L (≈ 1.27 µM). For the same molecule, the MIC in assay [8] was greater than 32 mg/L. Further, in [9] (4 μg/mL), the “cells with a large halo” value is recorded as 13.5%, the faint empty capsules is 12%, the “lysed cells with nucleoid with fragmented DNA” value (from here on “lysed cells with nucleoid”) worked out at 66% and the non-lysed cells came to 8.5%. Moreover, in [9] (8 μg/mL), the “cells with a large halo” value was determined as 6%, the faint empty capsules is reported as 19.5%, the “lysed cells with nucleoid” value worked out at 69.5% and the non-lysed cells is 5%. In [9] (16 μg/mL), the “cells with a large halo” value came to 5%, the faint empty capsules was found to be 15%, the “lysed cells with nucleoid” value is on record as 73.5% and the non-lysed cells is recorded as 6.5%. In assay [10] (16 μg/mL), the “cells with a large halo” value came out at 1%, the “cells with a small halo” value came out at 1% and the “lysed cells with nucleoid” value turned out to be 0.5%. Besides, in [10] (320 μg/mL), the cells not lysed was determined as 92%, the heavily lysed cells amounted to 3.5%, the “lysed cells with a small halo” value came out at 2.5% and the “lysed cells with nucleoid” value is given as 2%.

Regarding `CC1(C)S[C@@H]2[C@H](NC(=O)Cc3ccccc3)C(=O)N2[C@H]1C(=O)O` [benzylpenicillin], the MIC in assay [11] is greater than 32 mg/L. For the same molecule, the minimum inhibitory concentration (MIC) in assay [12] is greater than 32 mg/L. Further, in assay [13], the “background of extracellular DNA fragments” value is recorded as “no background” and the heavily lysed cells was determined as 5%. In [14] (16 μg/mL), the “background of extracellular DNA fragments” value is reported as “some background”, the cells not lysed was 81% and the “lysed cells with a large halo” value amounted to 4.5%. In assay [14] (32 μg/mL), the “cells lysed with nucleoid with fragmented DNA” value came out at 4%, the cells not lysed is given as 65% and the “cells with a large halo” value was determined as 4%. In [14] (320 μg/mL), the “cells with a small halo” value was 25% and the non-lysed cells came to 72.3%. Moreover, the empty faint capsules in [14] (16, 32 and 320 μg/mL) was 0.5-1.5%.
